Data on eleven compounds can be found in patent US12016864B2, “LOX enzyme inhibiting methods and compositions” (ANOVIA BIOSCIENCES, INC., priority 2021, dated 2024).

Assay [1] has as its target T1, Bovine lysyl oxidase (LOX) (Bos taurus, UniProt P33072).
T1 construct: from tissue; host or cells: adult bovine tendon
T1 sequence (P33072 170-418): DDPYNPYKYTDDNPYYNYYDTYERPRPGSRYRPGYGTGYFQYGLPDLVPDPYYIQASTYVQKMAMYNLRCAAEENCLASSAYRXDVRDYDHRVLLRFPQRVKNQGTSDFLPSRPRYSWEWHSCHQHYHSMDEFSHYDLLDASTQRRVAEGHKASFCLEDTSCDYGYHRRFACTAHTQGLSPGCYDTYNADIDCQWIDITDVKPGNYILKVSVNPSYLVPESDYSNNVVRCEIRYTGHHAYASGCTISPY
As to the kind of experiment: LOX inhibition assay, fluorometric (cadaverine / HRP / Amplex Red). The assay is classed as biochemical. The following applies: LOX extracted from bovine tendon, 30 min preincubation at 37° C., 5 mM cadaverine; for pIC50: read-out: Activity Range LOX. As to the method:
The ability of compounds to inhibit prototypic LOX was determined using a fluorometric assay. This assay measures the activity of lysyl oxidases by coupling the reaction with horseradish peroxidase-catalyzed […]. The activity assay protocol uses cadaverine as substrate that releases hydrogen peroxide upon transformation by prototypic LOX enzyme present in the sample. Hydrogen peroxide was in turn detected using a red fluorescence substrate for HRP-coupled reactions (Amplex Red Enzyme Assays, Thermo Scientific Fisher). This lead to an increase in fluorescence that can be easily detected at Ex/Em=540/590 nm in a fluorescence microplate
Bovine lysyl oxidase (LOX) was extracted by adapting the methodology from [Kagan et al. 1979 and Borel et al. 2001.] from bovine tendon: Frozen adult bovine tendon was placed in room temperature water to defrost, and then membranes were removed and the remaining tissue cut into 1 cm pieces. The material was first passed through a course mesh meat grinder, and this mince was passed through a fine mesh grinder. The mince was homogenized in 10 v/w of buffer (16 mM sodium phosphate buffer pH 7.8, 400 mM NaCl) using a Waring blender. The homogenate was centrifuged at 15,000×g for 15 min at 4° C. After centrifugation, the supernatant was discarded and the pellets resuspended in 10 volumes of the same buffer. The mixture was blended again and centrifuged with the same settings. This time the pellets were blended in 3 volumes of extraction buffer (16 mM sodium phosphate buffer pH 7.8) and left to incubate at 4° C. for 2 h. After this time, the slurry was centrifuged with the same settings as described above. The supernatant was used in an ultrafiltration step to remove large proteins by size exclusion through a 30 kDalton filter (EMD Millipore). The filtrate was mixed with DEAE Sephadex (GE Healthcare), or passed over a MonoQ FPLC column. After two washes, one in 16 mM sodium phosphate buffer pH 7.8, 380 mM NaCl, and another in 16 mM sodium phosphate buffer pH 7.8, the proteins were eluted with 16 mM sodium phosphate pH 7.8, 10 μM CuSO4, and 4 M urea. Fractions containing Lox activity were collected and stored frozen at −70° C.
Final concentration in the LOX assay is shown in Table 6 below and performed in a total volume of […].
7 μl of freshly prepared reaction buffer were delivered to reaction wells. Compounds were resuspended in 100% DMSO at 10 mM and delivered into buffer using acoustic technology (Echo550; nanoliter range). A 2.85× solution of LOX protein in reaction buffer was prepared (“LOX solution”) and 7 μl of LOX solution was added into the reaction wells. Buffer only was added to column 1 for no protein control. Reactions were incubated for 30 minutes at 37° C. A 3.33× mixture of cadaverine, Amplex Red, and HRP (“Substrate/Detection Mix) was prepared and subsequently 6 μL of the mixture was added to each reaction well. Progress of reactions was monitored for 120 minutes at 37° C. using Clariostar plate reader (ex530-12, ems 600-40). For all activity assays, pan-LOX inhibitor CCT365623 (Tang et al, 2017) and LOXL2/LOXL3 inhibitor PAT-1251 (PharmaKea) were included as standards.
The slope of the linear portion of the progress curve was calculated using Clariostar software. Typical analysis interval was between 20-50 min, but varied between experiments. The background subtracted signals (No protein wells were considered as background) were converted to % activity relative to DMSO controls. Data was analyzed using GraphPad Prism 4 with “sigmoidal dose-response (variable slope)”; 4 parameters with Hill Slope. Constraints: Bottom=Constant equal to 0. Top=Must be less than 120.

Assay [2] has as its target T2, Recombinant human LOXL2 (lysyl oxidase like 2) (Homo sapiens, UniProt Q9Y4K0).
T2 construct: purchased R&D systems
T2 sequence (Q9Y4K0 26-774): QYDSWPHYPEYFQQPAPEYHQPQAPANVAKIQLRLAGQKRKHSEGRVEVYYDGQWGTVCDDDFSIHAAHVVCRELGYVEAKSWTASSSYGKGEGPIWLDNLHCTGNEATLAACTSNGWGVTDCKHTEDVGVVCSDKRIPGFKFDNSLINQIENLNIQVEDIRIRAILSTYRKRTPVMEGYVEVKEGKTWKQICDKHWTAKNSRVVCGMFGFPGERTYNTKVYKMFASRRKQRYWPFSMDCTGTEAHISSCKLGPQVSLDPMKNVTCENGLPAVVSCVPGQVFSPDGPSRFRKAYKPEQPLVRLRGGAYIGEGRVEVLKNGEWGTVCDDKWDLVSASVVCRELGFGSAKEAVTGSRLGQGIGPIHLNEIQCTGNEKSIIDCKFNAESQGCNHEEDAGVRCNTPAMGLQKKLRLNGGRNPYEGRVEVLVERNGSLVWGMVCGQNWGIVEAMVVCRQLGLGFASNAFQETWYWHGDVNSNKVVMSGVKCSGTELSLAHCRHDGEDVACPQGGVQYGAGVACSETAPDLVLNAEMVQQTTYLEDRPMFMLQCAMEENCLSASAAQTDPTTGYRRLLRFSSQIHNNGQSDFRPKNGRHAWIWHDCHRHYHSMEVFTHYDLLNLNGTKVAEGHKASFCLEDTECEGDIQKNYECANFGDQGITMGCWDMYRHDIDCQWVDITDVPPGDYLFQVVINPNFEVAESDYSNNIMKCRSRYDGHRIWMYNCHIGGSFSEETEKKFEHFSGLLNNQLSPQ
Nature of the assay: LOXL2 inhibition assay, fluorometric (cadaverine / HRP / Amplex Red). The assay is classed as biochemical. The following applies: recombinant human LOXL2 130 nM; 30 min preincubation at 37° C.; 2.5 mM cadaverine; read-out: Activity Range LOXL2. Here is the method:
The ability of compounds to inhibit one or more of the lysyl oxidases LOXL2 and/or LOXL3 was determined using a fluorometric assay. This assay measures the activity of lysyl oxidases by coupling the reaction with horseradish peroxidase-catalyzed […]. The activity assay protocol uses cadaverine as substrate that releases hydrogen peroxide upon transformation by the specific LOX family enzyme present in the sample. Hydrogen peroxide is in turn detected using a red fluorescence substrate for HRP-coupled reactions (Amplex Red Enzyme Assays, Thermo Scientific Fisher). This leads to increase in fluorescence that can be easily detected at Ex/Em=540/590 nm in a fluorescence microplate reader.
Recombinant human LOXL2 (lysyl oxidase like 2) and recombinant human LOXL3 (lysyl oxidase like 3) were purchased from R&D systems and assays were performed in 1.2 M urea, 50 mM sodium borate buffer pH 8.0, and 10 mM CaCl.
5 μl of freshly prepared reaction buffer were delivered to reaction wells. Compounds were resuspended in 100% DMSO at 10 mM and delivered into buffer using acoustic technology (Echo550; nanoliter range). A 3× solution of LOXL2 or LOXL3 in reaction buffer was prepared (“enzyme solution”) and 5 μL of enzyme solution was added into the reaction wells. Buffer only was added to column 1 for no protein control. Reactions were incubated for 30 minutes at 37° C. A 3× mixture of cadaverine, Amplex Red, and HRP (“Substrate/Detection Mix) was prepared and subsequently 5 μL of the mixture added to each reaction well. Progress of reactions was monitored for 60 minutes at 37° C. using Clariostar plate reader (ex 530-12, ems 600-40). For all activity assays, pan-LOX inhibitor CCT365623 (Tang et al, 2017) and LOXL2/LOXL3 inhibitor PAT-1251 (PharmaKea) were included as standards.
For the data analysis, the slope of the linear portion of the progress curve was calculated using Clariostar software. Typical analysis interval was between 8-30 min, but varied between experiments. The background-subtracted signals (No protein wells are considered as background) were converted to % activity relative to DMSO controls. Data was analyzed using GraphPad Prism 4 with “sigmoidal dose-response (variable slope)”; 4 parameters with Hill Slope. Constraints: Bottom=Constant equal to 0. Top=Must be less than 120.

pIC50: −log10 of the molar value. Some results are limits rather than exact numbers.

As for `CS(=O)(=O)N1C[C@@H](c2ccccc2)C[C@H]1CS(=O)(=O)c1ccc(CN)cc1` (racemic) [Example 26, cis-(4-(((1-(Methylsulfonyl)-4-phenylpyrrolidin-2-yl)methyl)sulfonyl)phenyl)methanamine 2,2,2-trifluoroacetate], the pIC50 in assay [1] is 4.52 to 6.00; in assay [2], ≥ 6.30.
Taken in the same sequence, the figures for `NCc1ccc(S(=O)(=O)C[C@@H]2C[C@H](c3ccc(F)cc3)CN2S(=O)(=O)N2CCOCC2)s1` (racemic) [Example 208, cis-(5-(((4-(4-Fluorophenyl)-1-(morpholinosulfonyl)pyrrolidin-2-yl)methyl)sulfonyl)thiophen-2-yl)methanamine 2,2,2-trifluoroacetate] were ≥ 6.30 and ≥ 6.30.
`NCc1ccnc(OC[C@@H]2C[C@H](c3ccc(F)cc3)CN2S(=O)(=O)N2CCS(=O)(=O)CC2)c1.O=C(O)C(F)(F)F` (racemic) [Example 214, cis-((2-(((4-(Aminomethyl)pyridin-2-yl)oxy)methyl)-4-(4-fluorophenyl)pyrrolidin-1-yl)sulfonyl)thiomorpholine 1,1-dioxide 2,2,2-trifluoroacetate]: the “Activity Range LOX” value in assay [1] was “Inactive”. For the same compound, the pIC50 in assay [2] was ≥ 6.30.
As for `NCc1cccc(OC[C@@H]2C[C@H](c3ccc(F)cc3)CN2S(=O)(=O)N2CCS(=O)(=O)CC2)c1` (racemic) [Example 218, cis-4-((2-((3-(Aminomethyl)phenoxy)methyl)-4-(4-fluorophenyl)pyrrolidin-1-yl)sulfonyl)thiomorpholine 1,1-dioxide], the pIC50 in assay [1] was 4.52 to 6.00; in assay [2] it was ≥ 6.30.
Taken in the same sequence, the figures for `NCc1ccc(S(=O)(=O)C[C@@H]2C[C@H](c3ccccc3F)CN2S(=O)(=O)N2CCOCC2)s1` (racemic) [Example 207, cis-(5-(((4-(2-Fluorophenyl)-1-(morpholinosulfonyl)pyrrolidin-2-yl)methyl)sulfonyl)thiophen-2-yl)methanamine 2,2,2-trifluoroacetate] were ≥ 6.30 and ≥ 6.30.
Regarding `NCc1cccc(OC[C@@H]2C[C@H](c3ccc(F)cc3)CN2S(=O)(=O)N2CCOCC2)c1.O=C(O)C(F)(F)F` (racemic) [Example 216, cis-(3-((4-(4-Fluorophenyl)-1-(morpholinosulfonyl)pyrrolidin-2-yl)methoxy)phenyl)methanamine 2,2,2-trifluoroacetate], in assay [1], the “Activity Range LOX” value is “Inactive”. Further, the pIC50 in assay [2] is 6.00 to 6.30.
`NCc1ccnc(S(=O)(=O)C[C@@H]2C[C@H](c3ccc(F)cc3)CN2S(=O)(=O)N2CCS(=O)(=O)CC2)c1` (racemic) [Example 206, cis-4-((2-(((4-(Aminomethyl)pyridin-2-yl)sulfonyl)methyl)-4-(4-fluorophenyl)pyrrolidin-1-yl)sulfonyl)thiomorpholine 1,1-dioxide 2,2,2-trifluoroacetate]: the pIC50 in assay [1] is 4.52 to 6.00; in assay [2] it was ≥ 6.30.
With `NCc1ccnc(S(=O)(=O)C[C@@H]2C[C@H](c3ccccc3F)CN2S(=O)(=O)N2CCS(=O)(=O)CC2)c1` (racemic) [Example 205, cis-4-((2-(((4-(Aminomethyl)pyridin-2-yl)sulfonyl)methyl)-4-(2-fluorophenyl)pyrrolidin-1-yl)sulfonyl)thiomorpholine 1,1-dioxide 2,2,2-trifluoroacetate], the pIC50 in assay [2] is ≥ 6.30.
Turning to `NCc1ccc(S(=O)(=O)C[C@H]2C[C@H](c3ccccc3)CN(S(=O)(=O)N3CCOCC3)C2)s1` (relative stereo) [Example 222T, trans-(5-(((1-(Morpholinosulfonyl)-5-phenylpiperidin-3-yl)methyl)sulfonyl)thiophen-2-yl)methanamine 2,2,2-trifluoroacetate], in assay [2], the pIC50 is ≥ 6.30.
For the compound `NCc1ccnc(OC[C@@H]2C[C@H](c3ccccc3F)CN2S(=O)(=O)N2CCOCC2)c1` (racemic) [Example 211, cis-(2-((4-(2-Fluorophenyl)-1-(morpholinosulfonyl)pyrrolidin-2-yl)methoxy)pyridin-4-yl)methanamine; trifluoroacetic acid], in assay [2], the pIC50 is ≥ 6.30.
Still for that read-out and setting: under `NCc1ccc(S(=O)(=O)C[C@@H]2C[C@H](c3ccccc3F)CN2S(=O)(=O)N2CCS(=O)(=O)CC2)s1` (racemic) [Example 209, cis-4-((2-(((5-(Aminomethyl)thiophen-2-yl)sulfonyl)methyl)-4-(2-fluorophenyl)pyrrolidin-1-yl)sulfonyl)thiomorpholine 1,1-dioxide 2,2,2-trifluoroacetate] stands ≥ 6.30.
